Patent US6630469B2, “5-HT7 receptor antagonists” (Bristol-Myers Squibb Company, priority 2000, dated 2003)

target: T1, human 5-HT7 receptor (Homo sapiens, UniProt P34969); experiment: 5-HT7 Receptor Binding Assay; settings: membranes of CHO cells expressing human 5-HT7 receptor; 1 nM 3H-5-carboxamidotryptamine; 25° C., 60 minutes
T1 construct: expressed in transfected cells; host or cells: CHO cells
Experimental: 5-HT7 Receptor Binding Assay
Membranes are prepared for binding using the human 5-HT7 receptor expressed in CHO cells. Cells are collected and ruptured using a dounce homogenizer. The cells are spun at 18000× g for 10 minutes and the pellet is resuspended in assay buffer, frozen in liquid nitrogen and kept at −80° C. until the day of the assay.
A total of 30 ug protein is used per well. The assay is carried out in 96-deep-well plates. The assay buffer is 50 mM HEPES. The membrane preparation is incubated at 25° C. for 60 minutes with 0.1 nM to 1000 nM test compound and 1 nM ^3H-5-carboxamidotryptamine. 10 uM serotonin is used as blocking agent to determine non-specific binding. The reaction is terminated by the addition of 1 ml of ice cold 5OmM HEPES buffer and rapid filtration through a Brandel Cell Harvester using Whatman GF/B filters. The filter pads are counted in an LKB Trilux liquid scintillation counter. IC50 values are determined using non-linear regression by Exel-fit.

T1 sequence (P34969 whole entry): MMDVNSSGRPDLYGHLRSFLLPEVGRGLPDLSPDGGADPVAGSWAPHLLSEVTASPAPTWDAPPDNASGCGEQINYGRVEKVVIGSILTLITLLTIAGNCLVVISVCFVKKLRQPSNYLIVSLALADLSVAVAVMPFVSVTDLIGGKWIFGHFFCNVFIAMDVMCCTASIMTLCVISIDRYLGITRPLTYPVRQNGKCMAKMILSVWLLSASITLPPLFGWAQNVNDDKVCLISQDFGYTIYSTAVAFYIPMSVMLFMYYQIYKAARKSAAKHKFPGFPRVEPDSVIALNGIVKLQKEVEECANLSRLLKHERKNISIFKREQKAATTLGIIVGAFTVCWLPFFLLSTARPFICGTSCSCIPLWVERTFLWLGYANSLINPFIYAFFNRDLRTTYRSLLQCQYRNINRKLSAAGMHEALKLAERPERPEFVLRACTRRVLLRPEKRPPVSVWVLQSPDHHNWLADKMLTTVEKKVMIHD

| IC50 [nM] | SMILES |
| --- | --- |
| ≤ 50 | C[C@H](Nc1nc(N)nc(NCCc2cccc(F)c2)n1)c1ccc(Br)cc1 [Compound 68, N^2-[(1S)-1-(4-Bromophenyl)ethyl]-N^4-[2-(3-fluorophenyl)ethyl]-1,3,5-triazine-2,4,6-triamine] |
| 101 to 200 | Clc1ccc(CNc2ccnc(NCCOc3ccccc3)n2)cc1Cl [N^4-(3,4-Dichlorophenylmethyl)-N^2-(2-phenoxyethyl)pyrimidine-2,4-diamine] |
| ≤ 50 | C[C@H](Nc1ccnc(NCCOc2ccccc2)n1)c1cccc2ccccc12 [Compound 17, N^4-[(1S)-1-(1-Napthalenyl)ethyl]-N^2-(2-phenoxyethyl)pyrimidine-2,4-diamine] |
| 101 to 200 | COc1ccc(CCNc2nc(C)cc(N[C@@H](C)c3ccccc3)n2)cc1 [N^2-[2-(4-Methoxyphenyl)ethyl]-6-methyl-N^4-[(1S)-1-phenylethyl]pyrimidine-2,4-diamine] |
| ≤ 50 | CC(Nc1ccnc(NCCc2ccc(O)cc2)n1)c1ccccc1 (stereo not shown) [N^2-[2-(4-Hydroxyphenyl)ethyl]-N^4-(1-phenylethyl)pyrimidine-2,4-diamine] |
| ≤ 50 | CC(Nc1ccnc(NCCc2cccc(Cl)c2)n1)c1ccccc1 (stereo not shown) [N^2-[2-(3-Chlorophenyl)ethyl]-N^4-(1-phenylethyl)pyrimidine-2,4-diamine] |
| ≤ 50 | c1ccc(OCCNc2nccc(NCc3cccs3)n2)cc1 [Compound 18, N^2-(2-Phenoxyethyl)-N^4-(2-thienylmethyl)pyrimidine-2,4-diamine] |
| ≤ 50 | Nc1nc(NCCc2ccccc2)nc(NCc2ccccc2Cl)n1 [N^2-(2-Chlorophenylmethyl)-N^4-(2-phenylethyl)-1,3,5-triazine-2,4,6-triamine] |
| 101 to 200 | C[C@H](Nc1nc(N)nc(NCCNc2ccccc2)n1)c1cccc2ccccc12 [Compound 38, N^2-[(1S)-1-(1-Napthalenyl)ethyl]-N^4-[2-(phenylamino)ethyl]-1,3,5-triazine-2,4,6-triamine] |
| 51 to 100 | C[C@H](Nc1nc(N)nc(NCCc2ccccc2)n1)c1cccc2ccccc12 [Compound 56, N^2-[(1S)-1-(1-Napthalenyl)ethyl]-N^4-(2-phenylethyl)-1,3,5-triazine-2,4,6-triamine] |
| ≤ 50 | COc1cccc(CNc2ccnc(NCCc3ccccc3)n2)c1 [N^4-(3-Methoxyphenylmethyl)-N^2-(2-phenylethyl)pyrimidine-2,4-diamine] |
| 101 to 200 | Cc1ccc(CNc2ccnc(NCCc3ccccc3)n2)cc1Cl [N^4-(3-Chloro-4-methylphenylmethyl)-N^2-(2-phenylethyl)pyrimidine-2,4-diamine] |
| ≤ 50 | COc1cccc(CCNc2nccc(NC(C)c3ccccc3)n2)c1 (stereo not shown) [N^2-[2-(3-Methoxyphenyl)ethyl]-N^4-(1-phenylethyl)pyrimidine-2,4-diamine] |
| ≤ 50 | CC(Nc1ccnc(NCCC2=CCCCC2)n1)c1ccccc1 (stereo not shown) [Compound 23, N^2-[2-(1-Cyclohexenyl)ethyl]-N^4-(1-phenylethyl)pyrimidine-2,4-diamine] |
| 51 to 100 | C[C@H](Nc1nc(N)nc(NCCc2cccc(C(F)(F)F)c2)n1)c1ccccc1 [Compound 53, N^2-[(1S)-1-Phenylethyl]-N^4-{2-[3-(trifluoromethyl)phenyl]ethyl}-1,3,5-triazine-2,4,6-triamine] |
| ≤ 50 | C[C@H](Nc1cc(NCCOc2ccc(F)cc2)ncn1)c1ccccc1 [Example 16, N^4-[2-(4-Fluorophenoxy)ethyl]-N^6-[(1S)-1-phenylethyl]pyrimidine-4,6-diamine] |
| ≤ 50 | C[C@H](Nc1nc(N)nc(NCCc2ccc(Cl)c(Cl)c2)n1)c1ccccc1 [Compound 71, N^2-[2-(3,4-Dichlorophenyl)ethyl]-N^4-[(1S)-1-phenylethyl]-1,3,5-triazine-2,4,6-triamine] |
| ≤ 50 | Cc1cccc(CNc2ccnc(NCCOc3ccccc3)n2)c1 [N^4-(3-Methylphenylmethyl)-N^2-(2-phenoxyethyl)pyrimidine-2,4-diamine] |
| 51 to 100 | CC(Nc1ccnc(NCCc2ccc(Br)cc2)n1)c1ccccc1 (stereo not shown) [Compound 9, N^2-[2-(4-Bromophenyl)ethyl]-N^4-(1-phenylethyl)pyrimidine-2,4-diamine] |
| ≤ 50 | CC(Nc1ccnc(NCCc2cccc(O)c2)n1)c1ccccc1 (stereo not shown) [Compound 21, N^2-[2-(3-Hydroxyphenyl)ethyl]-N^4-(1-phenylethyl)pyrimidine-2,4-diamine] |
| ≤ 50 | CC(Nc1ccnc(N(C)CCc2ccccc2)n1)c1ccccc1 (stereo not shown) [N^2-(Methyl)-N^2-(2-phenylethyl)-N^4-(1-phenylethyl)pyrimidine-2,4-diamine] |
| 101 to 200 | FC(F)(F)c1ccc(CNc2ccnc(NCCc3ccccc3)n2)cc1 [N^2-(2-Phenylethyl)-N^4-[4-(trifluoromethyl)phenylmethyl]pyrimidine-2,4-diamine] |

| IC50 [nM] | SMILES |
| --- | --- |
| 51 to 100 | CC(Nc1ccnc(NCCc2ccccn2)n1)c1ccccc1 (stereo not shown) [Compound 12, N^4-(1-Phenylethyl)-N^2-[2-(2-pyridinyl)ethyl]pyrimidine-2,4-diamine] |
| ≤ 50 | c1ccc(CCNc2nccc(NCc3cccs3)n2)cc1 [Compound 27, N^2-(2-Phenylethyl)-N^4-(2-thienylmethyl)pyrimidine-2,4-diamine] |
| ≤ 50 | COc1cccc(CCNc2nc(N)nc(N[C@@H](C)c3ccc([N+](=O)[O-])cc3)n2)c1 [Compound 77, N^2-[2-(3-Methoxyphenyl)ethyl]-N^4-[(1S)-1-(4-nitrophenyl)ethyl]-1,3,5-triazine-2,4,6-triamine] |
| 101 to 200 | CC(CNc1nc(N)nc(N[C@@H](C)c2ccccc2)n1)c1ccccc1 (stereo partly drawn) [Compound 37, N^2-[(1S)-1-Phenylethyl]-N^4-(2-phenylpropyl)-1,3,5-triazine-2,4,6-triamine] |
| 51 to 100 | CC(Nc1ccnc(NC2Cc3ccccc3C2)n1)c1ccccc1 (stereo not shown) [Compound 10, N^2-(Indan-2-yl)-N4-(1-phenylethyl)pyrimidine-2,4-diamine] |
| ≤ 50 | Cc1cc(N[C@@H](C)c2ccccc2)nc(NCCc2ccc(Cl)cc2)n1 [N^2-[2-(4-Chlorophenyl)ethyl]-6-methyl-N^4-[(1S)-1-phenylethyl]pyrimidine-2,4-diamine] |
| 51 to 100 | CC[C@H](Nc1nc(N)nc(NCCOc2ccccc2)n1)c1ccccc1 [Compound 40, N^2-[2-(Phenoxy)ethyl]-N^4-[(1S)-1-phenylpropyl]-1,3,5-triazine-2,4,6-triamine] |
| 51 to 100 | COc1cccc(CCNc2nc(N)nc(N[C@@H](C)c3ccccc3)n2)c1 [Compound 54, N^2-[2-(3-Methoxyphenyl)ethyl]-N^4-[(1S)-1-phenylethyl]-1,3,5-triazine-2,4,6-triamine] |
| ≤ 50 | Fc1ccc(C(F)(F)F)cc1CNc1ccnc(NCCOc2ccccc2)n1 [N^4-[2-Fluoro-5-(trifluoromethyl)phenylmethyl]-N^2-(2-phenoxyethyl)pyrimidine-2,4-diamine] |
| 51 to 100 | CC(Nc1ccnc(NCCSc2ccccc2)n1)c1ccccc1 (stereo not shown) [N^2-(2-Phenthioethyl)-N^4-(1-phenylethyl)pyrimidine-2,4-diamine] |
| 101 to 200 | C[C@H](Nc1nc(N)nc(NCCc2ccc(Br)cc2)n1)c1ccc([N+](=O)[O-])cc1 [Compound 39, N^2-[2-(4-Bromophenyl)ethyl]-N^4-[(1S)-1-(4-nitrophenyl)ethyl]-1,3,5-triazine-2,4,6-triamine] |
| 51 to 100 | C[C@H](Nc1nc(N)nc(NCCc2ccc(Cl)cc2)n1)c1ccccc1 [Compound 50, N^2-[2-(4-Chlorophenyl)ethyl]-N^4-[(1S)-1-phenylethyl]-1,3,5-triazine-2,4,6-triamine] |
| ≤ 50 | Cc1ccc(CCNc2nc(N)nc(N[C@@H](C)c3ccccc3)n2)cc1 [Compound 72, N^2-[2-(4-Methylphenyl)ethyl]-N^4-[(1S)-1-phenylethyl]-1,3,5-triazine-2,4,6-triamine] |
| 51 to 100 | Fc1ccc(CNc2ccnc(NCCOc3ccccc3)n2)cc1C(F)(F)F [N^4-[4-Fluoro-3-(trifluoromethyl)phenylmethyl]-N^2-(2-phenoxyethyl)pyrimidine-2,4-diamine] |
| 101 to 200 | CC[C@@H](Nc1ccnc(NCCOc2ccccc2)n1)c1ccccc1 [N^2-(2-Phenoxyethyl)-N^4-[(1R)-1-phenylpropyl]pyrimidine-2,4-diamine] |
| ≤ 50 | c1ccc(OCCNc2nccc(NCc3ccncc3)n2)cc1 [Compound 19, N^2-(2-Phenoxyethyl)-N^4-(4-pyridinylmethyl)pyrimidine-2,4-diamine] |
| ≤ 50 | C[C@H](Nc1nc(N)nc(NCCc2ccc(O)cc2)n1)c1ccc([N+](=O)[O-])cc1 [Compound 75, N^2-[2-(4-Hydroxyphenyl)ethyl]-N^4-[(1S)-1-(4-nitrophenyl)ethyl]-1,3,5-triazine-2,4,6-triamine] |
| 101 to 200 | c1ccc(OCCNc2nccc(NCc3ccco3)n2)cc1 [Compound 4, N^4-(2-Furanylmethyl)-N^2-(2-phenoxyethyl)pyrimidine-2,4-diamine] |
| ≤ 50 | CC(Nc1ccnc(NCCc2cccc(C#N)c2)n1)c1ccccc1 (stereo not shown) [Compound 22, N^2-[2-(3-Cyanophenyl)ethyl]-N^4-(1-phenylethyl)pyrimidine-2,4-diamine] |
| ≤ 50 | Clc1ccc(CNc2ccnc(NCCc3ccccc3)n2)cc1 [N^4-(4-Chlorophenylmethyl)-N^2-(2-phenylethyl)pyrimidine-2,4-diamine] |
| 51 to 100 | c1ccc(CCNc2nccc(NCc3cccnc3)n2)cc1 [Compound 11, N^2-(2-Phenylethyl)-N^4-(3-pyridinylmethyl)pyrimidine-2,4-diamine] |
